Laboratory results taken from ChEMBL document CHEMBL2331402, “Salicylaldoxime derivatives as new leads for the development of carbonic anhydrase inhibitors” (Bioorg Med Chem, 2013).
pKi: −log10 of the molar value.

Tests used:
Carbonic anhydrase 2 = Carbonic anhydrase 2 (Homo sapiens, UniProt P00918); test: Inhibition of human recombinant carbonic anhydrase 2 preincubated for 15 mins by CO2 hydration stopped-flow assay
Carbonic anhydrase 1 = Carbonic anhydrase 1 (Homo sapiens, UniProt P00915); test: Inhibition of human recombinant carbonic anhydrase 1 preincubated for 15 mins by CO2 hydration stopped-flow assay
Carbonic anhydrase 12 = Carbonic anhydrase 12 (Homo sapiens, UniProt O43570); test: Inhibition of human recombinant carbonic anhydrase 12 preincubated for 15 mins by CO2 hydration stopped-flow assay
Carbonic anhydrase 9 = Carbonic anhydrase 9 (Homo sapiens, UniProt Q16790); test: Inhibition of human recombinant carbonic anhydrase 9 preincubated for 15 mins by CO2 hydration stopped-flow assay

Carbonic anhydrase 1, sequence (P00915 whole entry): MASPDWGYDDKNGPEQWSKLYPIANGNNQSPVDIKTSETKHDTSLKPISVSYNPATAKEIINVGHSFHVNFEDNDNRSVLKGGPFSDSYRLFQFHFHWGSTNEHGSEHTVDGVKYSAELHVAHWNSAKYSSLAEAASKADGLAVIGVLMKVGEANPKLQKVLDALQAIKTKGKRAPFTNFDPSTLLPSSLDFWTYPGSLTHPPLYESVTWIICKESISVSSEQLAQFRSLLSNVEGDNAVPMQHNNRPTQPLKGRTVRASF
Carbonic anhydrase 12, sequence (O43570 whole entry): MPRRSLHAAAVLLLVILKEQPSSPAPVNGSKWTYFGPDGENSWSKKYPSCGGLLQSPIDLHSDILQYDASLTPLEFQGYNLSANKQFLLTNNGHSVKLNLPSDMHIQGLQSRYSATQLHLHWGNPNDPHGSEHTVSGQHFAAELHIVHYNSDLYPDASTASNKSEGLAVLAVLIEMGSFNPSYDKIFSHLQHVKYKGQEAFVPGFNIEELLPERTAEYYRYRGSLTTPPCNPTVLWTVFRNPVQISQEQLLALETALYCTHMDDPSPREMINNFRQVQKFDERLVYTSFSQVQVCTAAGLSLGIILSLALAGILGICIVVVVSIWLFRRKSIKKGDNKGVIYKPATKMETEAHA

Row | pKi (Carbonic anhydrase 2) | pKi (Carbonic anhydrase 1) | pKi (Carbonic anhydrase 12) | pKi (Carbonic anhydrase 9) | Compound
1 | 5.64 | 5.40 | 5.37 | – | O/N=C/c1c(O)ccc(-c2ccc(O)cc2)c1Cl
2 | 3.47 | – | – | 6.03 | Oc1cc(F)cc(F)c1
3 | 5.23 | 5.12 | 5.50 | 5.11 | N#Cc1c(-c2ccc(O)cc2)ccc(/C=N/O)c1O
4 | 5.20 | 5.10 | 5.13 | 5.19 | Cc1c(-c2ccc(O)cc2)ccc(/C=N/O)c1O
5 | 5.30 | 5.12 | 5.32 | 5.15 | C/C(=N\O)c1ccc(-c2ccc(O)c(F)c2)c(Cl)c1O

Further lines, the compound ahead of its results:

Row | Compound | pKi (Carbonic anhydrase 2) | pKi (Carbonic anhydrase 1) | pKi (Carbonic anhydrase 12) | pKi (Carbonic anhydrase 9)
6 | O/N=C/c1c(O)ccc(-c2ccc(O)c(F)c2)c1Cl | 5.43 | 5.14 | 5.26 | 5.15
7 | COc1ccc(-c2ccc(O)c(/C=N/O)c2)cc1F | 5.44 | 5.16 | 5.23 | 4.99
8 | O/N=C/c1cc(-c2ccc(O)c(F)c2)ccc1O | 5.38 | 5.04 | 5.37 | 5.16
9 | C/C(=N\O)c1ccc(-c2ccc(O)cc2)c(Cl)c1O | 5.48 | 5.16 | 5.34 | 4.99
